Values after ≈ are worked out from the molar mass of the structure shown. Active and inactive are the calls of the source. The rule behind the calls is not given here.
What was measured:
[1] = Half-life in mouse at 3 mg/kg, iv; assay type: ADME, organism-based; settings: in vivo
Mus musculus [2] = test: Anti-inflammatory activity in imiquimod-induced mouse psoriasis model assessed as reduction in psoriasis score at 10 to 100 mg/kg/day; assay type: functional, organism-based; settings: dose 10-100 mg/kg/day
[3] = biological target: Tyrosine-protein kinase Lck (Homo sapiens) (UniProt P06239); test: Inhibition of human LCK at 10 uM measured by radioligand binding assay relative to control
Sequence of Tyrosine-protein kinase Lck (Homo sapiens) (P06239 2-509 limits assumed): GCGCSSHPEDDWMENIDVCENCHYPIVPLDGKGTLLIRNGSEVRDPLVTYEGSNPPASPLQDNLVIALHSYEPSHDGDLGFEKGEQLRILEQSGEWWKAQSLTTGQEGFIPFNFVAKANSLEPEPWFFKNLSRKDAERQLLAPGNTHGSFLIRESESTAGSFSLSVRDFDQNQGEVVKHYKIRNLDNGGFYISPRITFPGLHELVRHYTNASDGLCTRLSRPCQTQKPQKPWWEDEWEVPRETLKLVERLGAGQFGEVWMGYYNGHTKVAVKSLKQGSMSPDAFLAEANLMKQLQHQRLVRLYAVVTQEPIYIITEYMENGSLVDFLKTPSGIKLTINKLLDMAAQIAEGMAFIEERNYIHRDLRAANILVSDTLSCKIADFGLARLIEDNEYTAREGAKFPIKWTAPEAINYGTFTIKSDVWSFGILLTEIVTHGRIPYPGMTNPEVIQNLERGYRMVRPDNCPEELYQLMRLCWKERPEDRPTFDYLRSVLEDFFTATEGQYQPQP

[4] = Clearance in rat at 3 mg/kg, iv; assay type: ADME, organism-based; settings: in vivo
[5] = Plasma protein binding in dog
Spleen [6] = test: Anti-inflammatory activity in imiquimod-induced mouse psoriasis model assessed as reduction in inflammation in spleen at 10 to 100 mg/kg/day; assay type: functional, organism-based; settings: dose 10-100 mg/kg/day
[7] = biological target: Phosphodiesterase 4 (Homo sapiens) (UniProt P27815+Q08499+Q07343+Q08493); test: Inhibition of human PDE4 at 10 uM measured by radioligand binding assay relative to control; assay type: protein assay
[8] = Thermodynamic solubility in fasted simulated intestinal fluid; assay type: physicochemical; settings: read-out: Therm_solubility
[9] = Thermodynamic solubility in simulated gastric fluid; assay type: physicochemical; settings: read-out: Therm_solubility
Spleen [10] = test: Anti-inflammatory activity in imiquimod-induced mouse psoriasis model assessed as reduction in spleen weight at 10 to 100 mg/kg/day; assay type: functional, organism-based; settings: dose 10-100 mg/kg/day
Mus musculus [11] = test: Anti-inflammatory activity in IL-23-induced ear inflammation model of mouse assessed as inhibition of IL-17A levels at 100 mg/kg/day; assay type: functional
[12] = biological target: T1, Alpha-2B adrenergic receptor (Homo sapiens) (UniProt P18089); test: Inhibition of human adrenergic alpha2B at 10 uM measured by radioligand binding assay relative to control
T1 sequence (whole entry): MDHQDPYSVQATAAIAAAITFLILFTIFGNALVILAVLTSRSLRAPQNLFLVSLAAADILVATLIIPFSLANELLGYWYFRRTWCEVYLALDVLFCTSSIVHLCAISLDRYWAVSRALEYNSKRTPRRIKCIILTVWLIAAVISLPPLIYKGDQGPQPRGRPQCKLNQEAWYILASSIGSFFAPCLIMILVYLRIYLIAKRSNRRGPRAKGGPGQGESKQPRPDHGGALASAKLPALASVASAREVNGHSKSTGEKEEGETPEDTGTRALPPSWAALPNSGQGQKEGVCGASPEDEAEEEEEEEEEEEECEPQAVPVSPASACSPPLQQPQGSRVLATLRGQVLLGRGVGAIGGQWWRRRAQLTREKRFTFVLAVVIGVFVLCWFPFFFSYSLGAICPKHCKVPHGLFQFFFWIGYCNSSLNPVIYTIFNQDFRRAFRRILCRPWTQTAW

[13] = Oral bioavailability in mouse at 10 mg/kg; assay type: ADME, organism-based; settings: in vivo
[14] = Plasma protein binding in human assessed as unbound fraction
[15] = Plasma protein binding in mouse assessed as unbound fraction
[16] = Plasma protein binding in dog assessed as unbound fraction
[17] = Plasma protein binding in rat
[18] = Kinetic solubility of compound at pH 7.4; settings: buffer
[19] = Half-life in dog at 3 mg/kg, iv; assay type: ADME, organism-based, Canis lupus familiaris; settings: in vivo
[20] = Volume of distribution in dog at 3 mg/kg, iv; assay type: ADME, organism-based, Canis lupus familiaris; settings: in vivo
[21] = Oral bioavailability in rat at 10 mg/kg; assay type: ADME, organism-based; settings: in vivo
[22] = biological target: T2, Peroxisome proliferator-activated receptor gamma (Homo sapiens) (UniProt P37231); test: Inhibition of human PPARgamma at 10 uM measured by radioligand binding assay relative to control
T2 sequence (whole entry): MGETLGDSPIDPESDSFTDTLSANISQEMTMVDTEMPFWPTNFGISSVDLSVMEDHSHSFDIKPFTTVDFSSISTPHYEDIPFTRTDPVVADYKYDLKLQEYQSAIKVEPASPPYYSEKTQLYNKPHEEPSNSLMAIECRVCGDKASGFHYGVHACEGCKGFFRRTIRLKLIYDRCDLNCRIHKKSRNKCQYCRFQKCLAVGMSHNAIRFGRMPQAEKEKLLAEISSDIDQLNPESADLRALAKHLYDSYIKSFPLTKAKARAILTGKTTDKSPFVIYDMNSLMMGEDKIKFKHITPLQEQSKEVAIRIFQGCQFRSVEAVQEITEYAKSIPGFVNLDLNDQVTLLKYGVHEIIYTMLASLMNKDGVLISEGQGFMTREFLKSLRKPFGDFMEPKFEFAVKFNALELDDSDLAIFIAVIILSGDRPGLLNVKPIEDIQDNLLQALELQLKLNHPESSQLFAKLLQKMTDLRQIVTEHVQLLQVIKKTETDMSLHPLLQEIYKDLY

[23] = Clearance in dog at 3 mg/kg, iv; assay type: ADME, organism-based, Canis lupus familiaris; settings: in vivo
[24] = Half-life in rat at 3 mg/kg, iv; assay type: ADME, organism-based; settings: in vivo
Mus musculus [25] = test: Anti-inflammatory activity in IL-23-induced ear inflammation model of mouse assessed as inhibition of ear swelling at 100 mg/kg/day; assay type: functional
[26] = Clearance in mouse at 3 mg/kg, iv; assay type: ADME, organism-based; settings: in vivo
Blood [27] = test: Inhibition of IL-12- induced IFN-gamma production in human whole blood; assay type: functional, tissue-based
[28] = biological target: Protein kinase C (PKC) (Rattus norvegicus) (UniProt P05696+P68403+P09216+P63319+P09215+Q64617+Q9WTQ0+P09217); test: Inhibition of rat PKC at 10 uM measured by radioligand binding assay relative to control; assay type: protein assay
[29] = Volume of distribution in mouse at 3 mg/kg, iv; assay type: ADME, organism-based; settings: in vivo
Blood [30] = test: Inhibition of IL-12- induced IFN-gamma production in mouse whole blood; assay type: functional, tissue-based
[31] = Volume of distribution in rat at 3 mg/kg, iv; assay type: ADME, organism-based; settings: in vivo
[32] = Oral bioavailability in dog at 10 mg/kg; assay type: ADME, organism-based, Canis lupus familiaris; settings: in vivo
[33] = Plasma protein binding in rat assessed as unbound fraction

O=C1NCc2nc(-c3c(F)cccc3F)cc(Nc3ccc(C(=O)N4CCCC4)cc3)c21
half-life [1]: 1.8 h | Activity (Mus musculus [2]): Active | inhibition [3]: 61% | clearance [4]: 27 mL/min/kg | fraction unbound [5]: 0.13 | Activity (Spleen [6]): Active | inhibition [7]: 59% | solubility thermodynamic [8]: 240 µM (≈ 104 µg/mL) | solubility thermodynamic [9]: 2300 µM (≈ 999 µg/mL) | Activity (Spleen [10]): Active | inhibition in vivo at 100 mg/kg/day (Mus musculus [11]): 96% | inhibition [12]: 56% | bioavailability [13]: > 90% | fraction unbound [14]: 0.099 | fraction unbound [15]: 0.061 | fraction unbound [16]: 0.13 | fraction unbound [17]: 0.13 | solubility kinetic [18]: 270 µM (≈ 117 µg/mL) | half-life [19]: 6.5 h | Vd [20]: 2.5 L/kg | bioavailability [21]: 32% | inhibition [22]: 68% | clearance [23]: 5.2 mL/min/kg | half-life [24]: 1.6 h | inhibition in vivo at 100 mg/kg/day (Mus musculus [25]): 74% | clearance [26]: 28 mL/min/kg | fIC50 (Blood [27]): 0.18 µM | IC50 (Blood [27]; Homo sapiens, Blood): 1.8 µM | inhibition [28]: 66% | Vd [29]: 1.2 L/kg | fIC50 (Blood [30]): 0.36 µM | IC50 (Blood [30]; Mus musculus, Blood): 5.9 µM | Vd [31]: 1.9 L/kg | bioavailability [32]: 63% | fraction unbound [33]: 0.1

From ChEMBL document CHEMBL5104135, “Potent and selective TYK2-JH1 inhibitors highly efficacious in rodent model of psoriasis” (Bioorg Med Chem Lett, 2022)
